Results from a melting point compilation (Tetko et al.; mined from patent text by program, amines drawn as free bases though some values may be those of a salt).

First: CC(=O)OCC(=O)c1ccc(Cl)c(Cl)c1
Second: COc1ccc([N+](=O)[O-])c(OCC(N)=O)c1
The melting point of the first is lower: 68 to 70 °C for the first, 185 to 187 °C for the second.

First: O=C(NCCSCc1cccc(NC(=O)C2CC2)c1)c1c(Cl)cccc1Cl
Second: CC(C)CN1C(=O)[C@H](CC(=O)O)O[C@@H](c2ccccc2Cl)c2cc(Cl)ccc21
The melting point of the first is lower: 46 to 47 °C for the first, 183 to 186 °C for the second.

Compared with `COC(=O)c1cc2cc(OC)ccc2[nH]1`, `COc1ccc2[nH]c(C)c(C(C)=O)c2c1` is lower in melting point: 178 to 181 °C for the first, 156 to 158 °C for the second.

First: CCOC(=O)c1cnoc1-c1ccc(C)cc1
Second: CCOC(=O)c1occ(-c2ccccc2)c(=O)c1Br
The melting point of the first is lower: 42 to 44 °C for the first, 134 °C for the second.

First: Clc1ccc(-c2ccc(C3=NC[C@H](c4ccccc4)O3)cc2)cc1
Second: CNC(=O)C1CCN(Cc2cnc3cc(NC(=O)c4ccc(-c5ccc(F)cc5)cc4)c(C)cc3c2)CC1
The melting point of the first is lower: 122 °C for the first, 257 °C for the second.

First: Cc1ccc(Sc2c(O)c3ccc(Cl)cc3[nH]c2=O)cc1C
Second: Cc1ccccc1Cn1c(=O)[nH]c2cc(Cl)cc(Cl)c2c1=O
The melting point of the first is lower: 267 to 268 °C for the first, 274 to 276 °C for the second.

Compared with `COc1ccc2c(c1)C(=NN)Cc1c(C#N)cccc1S2`, `CC(=O)N1c2ccc(O)cc2Sc2cc([N+](=O)[O-])ccc21` is higher in melting point: 186 to 187 °C for the first, 202 to 205 °C for the second.

Compared with `O=C(NC1CC1)c1cc([N+](=O)[O-])[nH]n1`, `O=c1[nH]c2cc([N+](=O)[O-])sc2[nH]c1=O` is higher in melting point: 206 °C for the first, over 300 °C for the second.

First: COc1ncccc1NC(=O)[C@H]1[C@H](c2ccc(S(N)(=O)=O)cc2)C1(C)C (relative stereo)
Second: COc1ccnc(CCc2nc3cc(-c4ccc(S(=O)(=O)Nc5ccccc5OC)cc4)cnc3[nH]2)c1
The melting point of the first is higher: 216 to 218 °C for the first, 215 to 216 °C for the second.

Compared with `CC(C)Oc1cc(-n2c(=O)cc(C(F)(F)C(F)(F)F)[nH]c2=O)c(F)cc1Cl`, `N#Cc1nn(-c2c(Cl)cc(C(F)(F)F)cc2Cl)c(NCc2ccncc2)c1SCF` is higher in melting point: 141 to 143 °C for the first, 204 °C for the second.

First: COCCCn1c(=O)[nH]c2ncc(-c3ccc(O)cc3)nc21
Second: OC1CCCN(CCCOc2ccc3cc(-c4n[nH]c5cc(-c6ccccc6)sc45)[nH]c3c2)C1 (stereo unspecified)
The melting point of the first is lower: 208 to 210 °C for the first, 213 to 216 °C for the second.

Compared with `CN1CCN(C2=Nc3ccccc3N(C=O)c3ccncc32)CC1`, `Cc1cc2c3c(c1)nc(N1CCN(C)CC1)n3CCC2` is lower in melting point: 196 °C for the first, 164 to 165 °C for the second.

First: O=C(Nc1nc(-c2ccco2)c(C(=O)C2CCOCC2)s1)c1ccc(CN2CCCCC2)cc1
Second: O=C(Nc1nc(-c2ccco2)c(C(=O)C2CCOCC2)s1)c1ccc(Cl)nc1
The melting point of the first is lower: 160 to 162 °C for the first, 233 to 235 °C for the second.

First: Oc1ccc(CN2CCOCC2)c2cccnc12
Second: CCN(CC)C(=O)c1ccc(C(=O)N2CCN(c3ncccc3NC(C)C)CC2)cc1
The melting point of the first is higher: 130 °C for the first, 78 to 80 °C for the second.

Compared with `Cc1ccc(S(=O)(=O)N=c2[nH]c3ccccc3s2)cc1`, `COc1ccc(-c2ccccc2)cc1[N+]([O-])=NC(=O)OC(C)C` is lower in melting point: 246 to 249 °C for the first, 102 to 106 °C for the second.

First: CCCCCCCCCCCCCCCCCC(=O)ON1C(C)(C)CC(OC(=O)c2ccccc2)CC1(C)C
Second: CN1C(=O)c2ccccc2OC1(C)COc1ccc(CC2SC(=O)NC2=O)cc1 (stereo unspecified)
The melting point of the first is higher: 85 to 89 °C for the first, 58 to 60 °C for the second.

Compared with `Cc1oc(-c2ccccc2)nc1COc1ccc2oc(CCCC#N)cc2c1`, `N#Cc1cccc(C2=Nc3cc(N4CCC5(CC4)OCCO5)c(-c4ccccc4F)cc3NC(=O)C2)c1` is higher in melting point: 114 to 115 °C for the first, 253 °C for the second.

First: CC(=O)NC[C@H]1CN(c2ccc(N3CC(C)(O)C3)c(F)c2)C(=O)O1
Second: CC(=O)Nc1ccc2c(c1)CCC(CO)O2 (stereo unspecified)
The melting point of the first is lower: 152 to 153 °C for the first, 156 °C for the second.

First: CCOC(=O)COc1cc2cc(C(C)O)sc2c(Cl)c1Cl (stereo unspecified)
Second: CCOC(=O)C(C)Oc1cc(F)ccc1[N+](=O)[O-] (stereo unspecified)
The melting point of the first is higher: 101 to 103 °C for the first, 64 to 65 °C for the second.

First: CCOC(=O)C(O[Si](C)(C)C)C(O[Si](C)(C)C)c1cc2c(cc1[N+](=O)[O-])OCO2 (stereo unspecified)
Second: c1ccc2c(c1)nc(-c1ccc3c(c1)OCO3)n2CCC1CCCCC1
The melting point of the first is lower: 73.6 to 79.1 °C for the first, 110 to 111 °C for the second.

First: Cc1ccc2c(c1)C=Cc1cc(C)ccc1C2c1cn(Cc2ccc(C(=O)N[C@@H](CC(=O)O)C(=O)O)o2)c(=O)[nH]c1=S
Second: CN(C(=O)c1ccccc1N)c1ccccc1
The melting point of the first is higher: 195 °C for the first, 127 °C for the second.

First: CC(C)CCC1CCCCCc2c1oc(=O)c(C(c1ccccc1)C1CC1)c2O (stereo unspecified)
Second: O=C1Nc2c(ccc3c2CCNC3)C1=O
The melting point of the first is lower: 83 to 88 °C for the first, 270 °C for the second.

First: C#CC1(CO)C=CC(n2cc(C)c(=O)[nH]c2=O)O1 (stereo unspecified)
Second: CCCn1c(=O)n2c(=O)[nH]nc2c2c1ncn2C
The melting point of the first is lower: 207 to 209 °C for the first, 299 to 301 °C for the second.

First: O=C(O)CN(CC(=O)O)CC(CO)C(=O)O (stereo unspecified)
Second: CC1=C(C(=O)OCOC(=O)C(C)(C)C)C(C)C(C(=O)OCOC(=O)C(C)(C)C)=C(C)N1
The melting point of the first is higher: 195 °C for the first, 82 to 83 °C for the second.

Compared with `COc1cccc2c1CCc1cnoc1-2`, `CCOC(=O)C(=Cc1cccn2c(Br)cnc12)N=[N+]=[N-]` is higher in melting point: 84 to 86 °C for the first, 90 to 92 °C for the second.

Work on `CCCCSC(=NC(=O)N(CCC)CCC)NC(=O)NC(C)(C)C` yielded a melting point of 92 to 94 °C.
